From publication PMC8148468, “Shikimic acid protects skin cells from UV-induced senescence through activation of the NAD+-dependent deacetylase SIRT1” (Aging (Albany NY), 2021)

Tested on: HAS2 (hyaluronic acid synthase 2)
Test: UVB-induced senescence assay: HAS2 gene expression (qPCR)
Type: cell-based, human
Conditions: UVB-irradiated HDF
Experimental: In the second approach, we established a method for inducing senescence in these cells with 2 cycles of UVB irradiation 72h apart (Figure 2A). The use of UVA to induce senescence was discarded due to its considerably longer time requirement, being unsuitable to screen 30 compounds within a reasonable period. Cells were treated with these compounds throughout the duration of the assay and cellular senescence was monitored with two markers: accumulation of SA-β-galactosidase (SA-β-Gal) activity, and the decrease in expression of HAS2 (hyaluronic acid synthase 2), a previously reported marker of skin senescence.
Figure 2 (A) Schematic representation of the protocol for senescence induction using UVB irradiation. Cells were treated -/+ the compounds from day 1 to 7 after seeding, irradiated with UVB on days 2 and 5 and harvested for analysis on day 7. […] (C) Phase-contrast (left column) and bright field (right column) microscope images of SA-β-Gal staining showing non-irradiated cells, UVB-irradiated cells non-treated and treated with Gallic acid or Shikimic acid at the indicated concentrations. (D) Percentage of SA-β-Gal positive cells and (E) Relative HAS2 mRNA levels in non-irradiated cells, UVB-irradiated cells and UVB-irradiated cells treated with Gallic acid or Shikimic acid at the indicated concentrations. Student T-test, *p<0.05, **p<0.01, ***p<0.001.
RNA was extracted from cell pellets using the Total RNA Purification Kit (Norgen, Canada), according to the manufacturer’s protocol. Extracted RNA was quantified using a NanoDrop® ND-1000 UV-Vis Spectrophotometer (Thermo Fisher Scientific, USA) and 300 ng of RNA were retrotranscribed to cDNA using the PrimeScriptTM RT reagent kit (Takara Bio Inc., Japan). cDNA was diluted 1/10 in ultrapure water and qPCR mix was prepared by adding cDNA (12 ng), SYBR green supermix (Bio Rad, USA), forward and reverse primers (0.2μM). The primers and their respective sequences are listed in Supplementary Table 1. qPCR protocol included one step at 95° C for 30 s, 40 cycles at 95° C for 10s, and 60° C for 1min. The results were analyzed with Bio-Rad CFX Manager software. BACT was used as a housekeeping gene to normalize gene expression.
Senescence induction by UVB irradiation For the non-irradiation control conditions, HDF were […]
After 24h, culture medium was removed and well plates. After 24h, culture medium was removed replaced by fresh cell culture medium containing the and replaced with fresh cell culture medium containing compounds at different concentrations. After 24h, the compounds at different concentrations. […]
cell culture medium was removed, and cells were cells/plate in fresh cell culture medium containing the irradiated at 25 mJ/cm2 of UVB light (312 nm) in a Bio- compound in 6-well plates. After 3 days, cells were […]
amount of PBS. PBS was then removed and fresh cell fresh cell culture medium containing the compound in culture medium with the compound was added to each 6-well plates. After 2 days, cells were processed well. After 3 days, cells were irradiated again under the according to the qPCR, β-Gal staining, apoptosis, cell same conditions. After 2 days, cells were processed cycle or immunofluorescence protocols. according to the qPCR, β-Gal staining, apoptosis, cell cycle or immunofluorescence protocols.

O=C(O)C1=C[C@@H](O)[C@@H](O)[C@H](O)C1 [Shikimic acid]
HAS2 expression: increase in HAS2 expression
